Legend:
Format in all cases: in vivo
tobacco whitefly = assay: Test Example 4: test diluent scattered on tomato seedling with hatched tobacco whitefly larvae; settings: 168 h; 500 ppm, 10 ml/cup scattered on tomato seedling at larvae stage, counted after seven days at 25° C.; read-out: Control value
Protocol: The formulations were diluted with water so that the concentration of the active ingredient became 500 ppm and thus test diluents were prepared. On the other hand, by releasing tobacco whitefly imagos to a tomato seedling planted in a plastic cup to allow them to lay eggs for about 24 hours. The tomato seedling was kept in a green house for eight days. At the stage in which larvae hatched from the laid eggs, any of the test diluents was scattered at the rate of 10 ml/cup. The tomato seedling was kept in the greenhouse at 25° C. for seven days. The number of survived larvae on tomato leaves was counted, and the control value was calculated by the following equation. Control value(%)={1−(Cb×Tai)/(Cai×Tb)}×100 wherein each character represents the following meaning: Cb: number of insects in non-treated section before treatment Cai: number of insects in non-treated section during observation Tb: number of insects in treated section before treatment Tai: number of insects in treated section during observation

[1] = system: cotton aphids (Aphis gossypii Glover); assay: Test Example 1: test diluent scattered on cucumber seedling inoculated with cotton aphids; settings: 120 h, 500 ppm active ingredient, 10 ml scattered on cucumber seedling, counted five days after scattering, read-out: Control value
Protocol: The formulations were diluted with water so that the concentration of the active ingredient became 500 ppm and thus test diluents were prepared. On the other hand, a cucumber seedling (second true leaf development stage) planted in a plastic cup was inoculated with about 30 cotton aphids (Aphis gossypii Glover) and allowed to stand for one day. To the seedling, any one of the diluents (10 ml) was scattered. Five days after the scattering, the number of survived cotton aphids parasitic on the cucumber leaves was counted, and the control value was calculated by the following equation. Control value(%)={1−(Cb×Tai)/(Cai×Tb)}×100 wherein each character represents the following meaning: Cb: the number of insects in non-treated section before treatment Cai: the number of insects in non-treated section during observation Tb: the number of insects in treated section before treatment Tai: the number of insects in treated section during observation

cotton aphids = assay: Test Example 2: plant foot irrigation of cucumber seedling in urethane mat, cotton aphids inoculated one day after treatment; settings: 168 h; 500 ppm, 5 ml plant foot irrigation, urethane mat; aphids inoculated one day after treatment, counted seven days after; read-out: Control value
Protocol: The formulations were diluted with water so that the concentration of the active ingredient became 500 ppm and thus test diluents were prepared. On the other hand, a plant foot of cucumber seedling (second true leaf development stage) planted in a urethane mat was irrigated with any one of diluents (5 ml). One day after the treatment, the cucumber leaves were inoculated with 30 cotton aphids (all stages). Further seven days after, the number of survived cotton aphids parasitic on the cucumber leaves was counted, and the control value was calculated by the following equation. Control value(%)={1−(Cb×Tai)/(Cai×Tb)}×100 wherein each character represents the following meaning: Cb: number of insects in non-treated section before treatment Cai: number of insects in non-treated section during observation Tb: number of insects in treated section before treatment Tai: number of insects in treated section during observation

rice brown planthopper = assay: Test Example 6: plant foot irrigation of rice plant seedling, rice brown planthopper released after seven days; settings: Nilaparvata lugens, 144 h; 500 ppm, 5 ml plant foot irrigation of rice seedling; first-instars released after seven days, counted six days after; read-out: Control value
Protocol: The formulations were diluted with water so that the concentration of the active ingredient became 500 ppm and thus test diluents were prepared. On the other hand, a plant foot of rice plant seedling (two weeks after seeding, second leaf development stage) planted in a plastic cup was irrigated with any one of diluents (5 ml). The seedling was kept in a green house of 25° C. for seven days. Thirty first-instars of rice brown planthopper were released to the seedling, which was kept in the green house at 25 C for six days. Thereafter, the number of survived rice brown planthopper parasitic on rice plant leaves was counted, and the control value was calculated by the following equation. Control value(%)={1−(Cb×Tai)/(Cai×Tb)}×100 wherein each character represents the following meaning: Cb: number of insects in non-treated section before treatment Cai: number of insects in non-treated section during observation Tb: number of insects in treated section before treatment Tai: number of insects in treated section during observation

| Compound | pest or weed control at 500 ppm (tobacco whitefly) [%] | pest or weed control at 500 ppm [1] [%] | pest or weed control at 500 ppm (cotton aphids) [%] | pest or weed control at 500 ppm (rice brown planthopper) [%] |
| --- | --- | --- | --- | --- |
| FC(F)(F)c1ccc2nc(-c3ccncc3)oc2n1 [Active Compound 153, 2-(pyridin-4-yl)-5-(trifluoromethyl)oxazolo[5,4-b]pyridine] | ≥ 90 | – | – | – |
| FC(F)(F)c1ccc2nc(-c3ccncc3Cl)oc2n1 [Active Compound 154, 2-(3-chloropyridin-4-yl)-5-(trifluoromethyl)oxazolo[5,4-b]pyridine] | ≥ 90 | – | – | – |
| CCc1ccc2oc(-c3ccncc3)nc2c1 [active compound 3, 5-ethyl-2-(pyridin-4-yl)-benzoxazole] | ≥ 90 | – | – | – |
| CC(C)c1ccc2oc(-c3ccncc3)nc2c1 [active compound 5, 5-isopropyl-2-(pyridin-4-yl)-benzoxazole] | ≥ 90 | ≥ 90 | – | – |
| CC(C)(C)c1ccc2oc(-c3ccncc3)nc2c1 [active compound 6, 5-tert-butyl-2-(pyridin-4-yl)-benzoxazole] | ≥ 90 | ≥ 90 | – | – |
| FC(F)(F)c1ccc2oc(-c3ccncc3I)nc2c1 [active compound 29, 2-(3-iodopyridin-4-yl)-5-(trifluoromethyl)benzoxazole] | – | – | ≥ 90 | – |
| FC(F)(F)COc1cnccc1-c1nc2cc(C(F)(F)F)ccc2o1 [active compound 39, 2-[3-(2,2,2-trifluoroethyl)oxypyridin-4-yl]-5-(trifluoromethyl)benzoxazole] | – | – | – | ≥ 90 |
| CCSc1cnccc1-c1nc2cc(C(F)(F)F)ccc2o1 [active compound 41, 2-(3-ethylthiopyridin-4-yl)-5-(trifluoromethyl)benzoxazole] | – | – | – | ≥ 90 |
| Nc1cnccc1-c1nc2cc(C(F)(F)F)ccc2o1 [active compound 52, 2-(3-aminopyridin-4-yl)-5-(trifluoromethyl)benzoxazole] | ≥ 90 | – | – | – |
| FC(F)(F)c1ccc2oc(-c3ccncc3N3CCCC3)nc2c1 [active compound 53, 2-[3-(pyrrolidine-1-yl)pyridin-4-yl]-5-(trifluoromethyl)benzoxazole] | ≥ 90 | – | – | – |
| FC(F)(F)c1ccc2oc(-c3ccncc3N3CCOCC3)nc2c1 [active compound 55, 2-[3-(morpholin-4-yl)pyridin-4-yl]-5-(trifluoromethyl)benzoxazole] | – | – | ≥ 90 | – |
| FC(F)(F)c1ccc2oc(-c3ccncc3-n3ccnc3)nc2c1 [active compound 56, 2-[3-(imidazole-1-yl)pyridin-4-yl]-5-(trifluoromethyl)benzoxazole] | – | – | ≥ 90 | – |
| FC(F)(F)c1ccc2oc(-c3ccncc3OCC(F)(F)C(F)(F)F)nc2c1 [active compound 75, 2-[3-(2,2,3,3,3-pentafluoropropoxy)pyridin-4-yl]-5-(trifluoromethyl)benzoxazole] | – | – | – | ≥ 90 |
| FC(F)(F)Sc1ccc2oc(-c3ccncc3)nc2c1 [active compound 76, 2-(pyridin-4-yl)-5-(trifluoromethylthio)benzoxazole] | – | – | ≥ 90 | – |
| FC(F)(F)COc1cnccc1-c1nc2cc(C(F)(F)F)c(Cl)cc2o1 [active compound 92, 6-chloro-2-[3-(2,2,2-trifluoroethoxy)pyridin-4-yl]-5-(trifluoromethyl)benzoxazole] | – | – | – | ≥ 90 |
| CCc1cnccc1-c1nc2cc(C(F)(F)F)c(Cl)cc2o1 [active compound 93, 6-chloro-2-(3-ethylpyridin-4-yl)-5-(trifluoromethyl)benzoxazole] | – | – | ≥ 90 | ≥ 90 |
| Fc1cc2oc(-c3ccncc3Cl)nc2cc1C(F)(F)F [active compound 94] | – | – | ≥ 90 | – |
| COc1cnccc1-c1nc2cc(C(C)(C)C)ccc2o1 [active compound 100, 5-tert-butyl-2-(3-methoxypyridin-4-yl)benzoxazole] | ≥ 90 | ≥ 90 | – | ≥ 90 |
| CC(C)(C)c1ccc2oc(-c3ccncc3OCC(F)(F)F)nc2c1 [active compound 101, 5-tert-butyl-2-[3-(2,2,2-trifluoroethoxy)pyridin-4-yl]benzoxazole] | ≥ 90 | ≥ 90 | – | ≥ 90 |
| CC(C)Oc1cnccc1-c1nc2cc(C(C)(C)C)ccc2o1 [active compound 104, 5-tert-butyl-2-(3-isopropoxypyridin-4-yl)benzoxazole] | ≥ 90 | ≥ 90 | – | – |
| CCc1cnccc1-c1nc2cc(C(C)(C)C)ccc2o1 [active compound 105, 5-tert-butyl-2-(3-ethylpyridin-4-yl)benzoxazole] | ≥ 90 | ≥ 90 | – | – |
| FC(F)COc1cnccc1-c1nc2cc(C(F)(F)F)ccc2o1 [active compound 110, 2-[3-(2,2-difluoroethoxy)pyridin-4-yl]-5-(trifluoromethyl)benzoxazole] | ≥ 90 | ≥ 90 | ≥ 90 | ≥ 90 |
| CC(Oc1cnccc1-c1nc2cc(C(F)(F)F)ccc2o1)C(F)(F)F (centres unmarked) [active compound 111, 2-[3-(1-methyl-2,2,2-trifluoroethoxy)pyridin-4-yl]-5-(trifluoromethyl)benzoxazole] | ≥ 90 | ≥ 90 | – | ≥ 90 |
| FC(F)(F)c1ccc2oc(-c3ccncc3OC3CCCC3)nc2c1 [active compound 115, 2-(3-cyclopentyloxypyridin-4-yl)-5-(trifluoromethyl)benzoxazole] | – | ≥ 90 | – | – |
| CC(C)COc1cnccc1-c1nc2cc(C(F)(F)F)ccc2o1 [active compound 116, 2-(3-isobutoxypyridin-4-yl)-5-(trifluoromethyl)benzoxazole] | – | ≥ 90 | – | – |
| CCC(C)Oc1cnccc1-c1nc2cc(C(F)(F)F)ccc2o1 (centres unmarked) [active compound 119, 2-(3-sec-butoxypyridin-4-yl)-5-(trifluoromethyl)benzoxazole] | – | – | ≥ 90 | – |
| COCCOc1cnccc1-c1nc2cc(C(F)(F)F)ccc2o1 [active compound 120, 2-[3-(2-methoxyethoxy)pyridin-4-yl]-5-(trifluoromethyl)benzoxazole] | – | – | ≥ 90 | – |
| FC(F)Oc1cnccc1-c1nc2cc(C(F)(F)F)ccc2o1 [active compound 126, 2-(3-difluoromethoxypyridin-4-yl)-5-(trifluoromethyl)benzoxazole] | ≥ 90 | ≥ 90 | ≥ 90 | ≥ 90 |
| FC(F)(F)c1ccc2oc(-c3ccncc3-c3cccnc3)nc2c1 [active compound 128, 4-(5-trifluoromethyl-benzoxazole-2-yl)-[3,3′]bipyridinyl] | – | – | ≥ 90 | – |
| CN(C)c1cnccc1-c1nc2cc(C(F)(F)F)ccc2o1 [active compound 131, dimethyl-{4-[5-(trifluoromethyl)benzoxazole-2-yl]pyridin-3-yl}amine] | – | – | ≥ 90 | – |
